Data: ChEMBL document CHEMBL1133979, “1,2,4-triazolo[3,4-a]pyridine as a novel, constrained template for fibrinogen receptor (GPIIb/IIIa) antagonists” (Bioorg Med Chem Lett, 2001)

Key:
Canis familiaris = experiment: Ex vivo oral duration for maintaining at least 50% inhibition of platelet aggregation induced by adenosine diphosphate after administration at a dose of at 1 mg/kg; assay type: functional, Canis lupus familiaris
[1] = biological target: T1, Integrin alpha-IIb/beta-3 (Homo sapiens, UniProt P05106+P08514); experiment: Inhibition of biotinylated fibrinogen binding to immobilized integrin GPIIb/IIIa; assay type: protein-complex assay
[2] = Oral bioavailability in dog; assay type: ADME, organism-based, Canis lupus familiaris; settings: in vivo
[3] = biological target: T1, Integrin alpha-IIb/beta-3; experiment: Inhibition of thrombin-induced human gel-filtered platelet aggregation at 50 uM; NA= Inactive; assay type: functional
[4] = Half life in dog; assay type: ADME, organism-based, Canis lupus familiaris; settings: in vivo

T1 sequence (P05106 27-788 limits assumed): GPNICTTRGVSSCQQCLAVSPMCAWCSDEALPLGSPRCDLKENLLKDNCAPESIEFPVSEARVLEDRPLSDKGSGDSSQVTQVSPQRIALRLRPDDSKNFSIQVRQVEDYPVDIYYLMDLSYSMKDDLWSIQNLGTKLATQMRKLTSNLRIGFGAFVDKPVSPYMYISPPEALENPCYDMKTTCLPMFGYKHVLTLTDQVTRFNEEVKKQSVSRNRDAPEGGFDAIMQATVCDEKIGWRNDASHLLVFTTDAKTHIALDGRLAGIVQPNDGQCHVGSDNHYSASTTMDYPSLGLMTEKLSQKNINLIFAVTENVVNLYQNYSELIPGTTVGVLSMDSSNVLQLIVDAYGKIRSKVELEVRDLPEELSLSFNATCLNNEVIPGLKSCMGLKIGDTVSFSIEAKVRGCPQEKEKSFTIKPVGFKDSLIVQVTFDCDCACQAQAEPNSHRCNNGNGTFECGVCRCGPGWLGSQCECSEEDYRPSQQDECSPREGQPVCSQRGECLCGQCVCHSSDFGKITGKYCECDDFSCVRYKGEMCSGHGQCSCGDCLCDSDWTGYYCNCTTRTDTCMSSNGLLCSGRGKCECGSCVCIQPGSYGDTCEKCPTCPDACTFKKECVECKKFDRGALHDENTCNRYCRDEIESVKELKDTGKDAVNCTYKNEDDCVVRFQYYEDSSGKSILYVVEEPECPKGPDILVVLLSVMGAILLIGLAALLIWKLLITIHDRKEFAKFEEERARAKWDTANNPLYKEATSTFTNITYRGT
T1 sequence (P08514 32-887 limits assumed): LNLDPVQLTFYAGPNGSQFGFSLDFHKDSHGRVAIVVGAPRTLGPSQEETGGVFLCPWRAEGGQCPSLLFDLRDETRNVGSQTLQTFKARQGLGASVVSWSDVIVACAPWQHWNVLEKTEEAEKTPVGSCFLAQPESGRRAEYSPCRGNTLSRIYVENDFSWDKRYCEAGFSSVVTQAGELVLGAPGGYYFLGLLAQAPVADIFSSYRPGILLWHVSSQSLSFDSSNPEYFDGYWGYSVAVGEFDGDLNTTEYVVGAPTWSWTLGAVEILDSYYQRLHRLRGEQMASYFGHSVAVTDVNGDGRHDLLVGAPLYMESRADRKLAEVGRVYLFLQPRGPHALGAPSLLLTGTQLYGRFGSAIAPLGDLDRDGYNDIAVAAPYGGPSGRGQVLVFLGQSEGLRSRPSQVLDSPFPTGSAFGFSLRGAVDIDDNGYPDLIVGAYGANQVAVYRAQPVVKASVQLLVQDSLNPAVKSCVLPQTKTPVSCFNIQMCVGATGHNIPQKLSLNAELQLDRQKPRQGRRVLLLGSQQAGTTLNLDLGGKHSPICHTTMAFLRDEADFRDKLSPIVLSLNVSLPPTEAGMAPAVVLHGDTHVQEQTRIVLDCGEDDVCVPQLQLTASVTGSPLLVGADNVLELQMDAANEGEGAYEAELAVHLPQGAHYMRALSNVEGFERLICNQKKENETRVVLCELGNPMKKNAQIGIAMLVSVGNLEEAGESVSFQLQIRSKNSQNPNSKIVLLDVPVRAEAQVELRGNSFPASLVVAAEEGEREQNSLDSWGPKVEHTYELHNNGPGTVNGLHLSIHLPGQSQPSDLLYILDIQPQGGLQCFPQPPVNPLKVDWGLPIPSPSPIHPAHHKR
T1 sequence (P08514 891-1039 limits assumed): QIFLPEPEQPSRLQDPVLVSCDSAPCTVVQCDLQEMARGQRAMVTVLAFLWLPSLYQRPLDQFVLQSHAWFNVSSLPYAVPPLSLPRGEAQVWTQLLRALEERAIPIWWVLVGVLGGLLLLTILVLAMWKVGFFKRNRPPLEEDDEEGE

Compound | Oral duration (Canis familiaris) | IC50 [1] | other results
O=C(O)C[C@H](NC(=O)C1CCCn2c(CCC3CCNCC3)nnc21)c1cccnc1 (stereo not given in full) | 3 h | 0.53 nM | –
O=C(O)C[C@H](NC(=O)c1cccn2c(CCC3CCNCC3)nnc12)c1cccnc1 | – | 4.2 nM | –
O=C(O)C[C@H](NC(=O)C1CCCn2c(/C=C/C3CCNCC3)nnc21)c1cccnc1 (stereo not given in full) | >6 h | 0.21 nM | bioavailability [2]: 31%
O=C(N[C@@H](CNC(=O)C1CCCn2c(/C=C/C3CCNCC3)nnc21)C(=O)O)OCc1ccccc1 (stereo not given in full) | >6 h | 0.32 nM | bioavailability [2]: 23%
O=C(NC[C@H](NS(=O)(=O)Cc1ccccc1)C(=O)O)C1CCCn2c(/C=C/C3CCNCC3)nnc21 (stereo not given in full) | <0.5 h | – | –
O=C(N[C@@H](CNC(=O)[C@@H]1CCCN(C(=O)CCC2CCNCC2)C1)C(=O)O)OCc1ccccc1 | 3 h | 0.17 nM | –
O=C(N[C@@H](CNC(=O)C1CCCn2c(CCC3CCNCC3)nnc21)C(=O)O)OCc1ccccc1 (stereo not given in full) | 4 h | – | –
O=C(O)C[C@H](NC(=O)C1CCCn2c(/C=C/C3CCNCC3)nnc21)c1cnc2ccccc2c1 (stereo not given in full) | 4.5 h | – | –
CC1(C(=O)NC[C@H](NC(=O)OCc2ccccc2)C(=O)O)CCCn2c(CCC3CCNCC3)nnc21 (stereo not given in full) | <0.5 h | – | –
O=C(O)C[C@H](NC(=O)c1cccn2c(/C=C/C3CCNCC3)nnc12)c1cccnc1 | – | – | IC50 [3]: Not Active
O=C(O)C[C@H](NC(=O)[C@@H]1CCCN(C(=O)CCC2CCNCC2)C1)c1cccnc1 [ELAROFIBAN] | 5 h | 0.36 nM | half-life [4]: 5 h; bioavailability ([2]; read-out: Bioavailabiility): 16%
